Laboratory results taken from US20250177396A1, “POLO-LIKE KINASE 4 (PLK4) INHIBITORS, PHARMACEUTICAL COMPOSITIONS, METHODS OF PREPARATION AND USES THEREOF” (Repare Therapeutics Inc., priority 2022, published 2025).

target: T1, PLK4 (Homo sapiens, UniProt O00444); assay: PLK4 NanoBRET target engagement assay; assay type: binding; conditions: HEK293 T cells transfected with PLK4 NanoLuc fusion vector; K-5 tracer; 2 hrs incubation
T1 construct: expressed in transfected cells; host or cells: HEK293 T cells (ATCC CRL-3216)
T1 sequence (O00444 1-970): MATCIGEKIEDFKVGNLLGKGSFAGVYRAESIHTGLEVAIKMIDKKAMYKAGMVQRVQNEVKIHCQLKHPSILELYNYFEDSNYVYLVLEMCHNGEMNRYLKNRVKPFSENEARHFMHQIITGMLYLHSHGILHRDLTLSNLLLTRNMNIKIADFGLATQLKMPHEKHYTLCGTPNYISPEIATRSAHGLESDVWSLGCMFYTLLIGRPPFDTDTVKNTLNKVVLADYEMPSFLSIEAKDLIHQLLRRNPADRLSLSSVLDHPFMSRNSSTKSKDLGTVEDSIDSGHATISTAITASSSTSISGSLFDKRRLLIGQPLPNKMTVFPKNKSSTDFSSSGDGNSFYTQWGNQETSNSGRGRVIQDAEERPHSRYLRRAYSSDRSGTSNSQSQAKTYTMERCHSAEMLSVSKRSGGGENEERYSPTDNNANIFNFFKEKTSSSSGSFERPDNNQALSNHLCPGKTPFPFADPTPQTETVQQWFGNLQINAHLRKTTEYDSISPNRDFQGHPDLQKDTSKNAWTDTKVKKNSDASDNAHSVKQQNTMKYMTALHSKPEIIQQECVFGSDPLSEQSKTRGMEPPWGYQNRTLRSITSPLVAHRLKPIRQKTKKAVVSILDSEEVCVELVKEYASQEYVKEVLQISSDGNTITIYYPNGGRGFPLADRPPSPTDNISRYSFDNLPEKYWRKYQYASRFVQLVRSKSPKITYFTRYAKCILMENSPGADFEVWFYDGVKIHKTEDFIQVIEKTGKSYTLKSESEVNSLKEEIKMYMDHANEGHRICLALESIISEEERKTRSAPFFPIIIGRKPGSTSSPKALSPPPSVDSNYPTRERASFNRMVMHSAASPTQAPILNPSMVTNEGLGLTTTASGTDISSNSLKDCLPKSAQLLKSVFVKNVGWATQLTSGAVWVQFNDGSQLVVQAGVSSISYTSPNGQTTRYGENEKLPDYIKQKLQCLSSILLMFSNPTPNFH
Summary of the method: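 HEK293T cells transiently expressing PLK4-NanoLuc, plated at 17000 cells/well with K-5 tracer and compound, incubated 2 h at 37 °C/5% CO2. After substrate/inhibitor mix, 610/450 nm emission ratio ×1000 gave mBRET; IC50 from 4-parameter fit.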

| SMILES | IC50 |
| --- | --- |
| Cc1cc(Nc2nc(N(C)c3c(F)cc(S(C)(=O)=O)cc3F)nc(-c3cn4c(n3)CCC4)c2C2CC2)n[nH]1 [Compound 140] | 0.003 µM |
| Cc1ccn(-c2nc(N(C)c3ccc(S(C)(=O)=O)cc3F)nc(Nc3cc(C)[nH]n3)c2C2CC2)n1 [Compound 113] | 0.15 µM |
| COc1c(-c2nc(N(C)c3c(F)cc(S(C)(=O)=O)cc3F)nc(Nc3cc(C)[nH]n3)c2C2CC2)cnn1C [Compound 154] | 0.01 µM |
| Cc1cc(Nc2nc(N(C)c3c(F)cc(S(C)(=O)=O)cc3F)nc(-c3ccn(C(F)F)n3)c2C2CC2)n[nH]1 [Compound 155] | 0.01 µM |
| COc1c(Nc2cc(C)[nH]n2)nc(Oc2ccc(Br)c(C#N)c2)nc1-c1cnn(C)c1 [Compound 36] | 7 µM |
| COCCn1ncc(-c2nc(N(C)c3cc(F)c(S(C)(=O)=O)cc3F)nc(Nc3cc(C)[nH]n3)c2C2CC2)c1C [Compound 222] | 0.015 µM |
| Cc1cc(Nc2nc(Sc3ccc(S(C)(=O)=O)cc3F)cc(-c3cnn(C)c3)c2C2CC2)n[nH]1 [Compound 94] | 0.11 µM |
| Cc1cc(Nc2nc(N(C)c3cc(F)c(S(C)(=O)=O)cc3F)nc(-c3ccn(C)n3)c2C2CC2)n[nH]1 [Compound 133] | 0.018 µM |
| Cc1cc(Nc2nc(N(C)c3c(F)cc(S(C)(=O)=O)cc3F)nc(-c3cn(C)nc3C3CC3)c2C2CC2)n[nH]1 [Compound 198] | 0.004 µM |
| COCCn1cc(-c2nc(N(C)c3cc(F)c(S(C)(=O)=O)cc3F)nc(Nc3cc(C)[nH]n3)c2C2CC2)c(C)n1 [Compound 221] | 0.012 µM |
| Cc1cc(Nc2nc(N(C)c3ccc(S(C)(=O)=O)cc3F)nc(N3CCOc4ccncc43)c2C2CC2)n[nH]1 [Compound 110, 5-cyclopropyl-6-(2,3-dihydro-4H-pyrido[4,3-b][1,4]oxazin-4-yl)-N^2-(2-fluoro-4-(methylsulfonyl)phenyl)-N^2-methyl-N^4-(5-methyl-1H-pyrazol-3-yl)pyrimidine-2,4-diamine] | 0.16 µM |
| Cc1cc(Nc2nc(N(C)c3c(F)cc(S(C)(=O)=O)cc3F)nc(-c3cn(C)c(C#N)n3)c2C2CC2)n[nH]1 [Compound 204] | 0.008 µM |
| COc1c(Nc2cc(C)[nH]n2)nc(N(C)c2ccc(S(C)(=O)=O)cc2F)nc1-c1cnn(C)c1 [Compound 2, N^2-(2-fluoro-4-(methylsulfonyl)phenyl)-5-methoxy-N^2-methyl-N^4-(5-methyl-1H-pyrazol-3-yl)-6-(1-methyl-1H-pyrazol-4-yl)pyrimidine-2,4-diamine] | 0.053 µM |
| COc1c(Nc2cc(C)[nH]n2)nc(N(C)c2ccc(S(C)(=O)=O)nc2)nc1-c1cnn(C)c1 [Compound 58] | 1.1 µM |
| Cc1cc(Nc2nc(N(C)c3cc(F)c(S(C)(=O)=O)cc3F)nc(-c3cnn([C@H]4CC[C@H](O)CC4)c3)c2C2CC2)n[nH]1 [Compound 223] | 0.009 µM |
| COCc1cc(-c2nc(N(C)c3c(F)cc(S(C)(=O)=O)cc3F)nc(Nc3cc(C)[nH]n3)c2C2CC2)nn1C [Compound 166] | 0.004 µM |
| Cc1cc(Nc2nc(N(C)c3cc(F)c(S(C)(=O)=O)cc3F)nc(-c3ccn(C(F)F)n3)c2C2CC2)n[nH]1 [Compound 194] | 0.063 µM |
| COCCn1cc(-c2nc(N(C)c3ccc(S(C)(=O)=O)cc3F)nc(Nc3cc(C)[nH]n3)c2C2CC2)c(C)n1 [Compound 219] | 0.018 µM |
| Cc1cc(Nc2nc(N(C)c3c(F)cc(S(C)(=O)=O)cc3F)nc(-c3oc(C)nc3C)c2C2CC2)n[nH]1 [Compound 151] | 0.007 µM |
| Cc1cc(Nc2nc(N(C)c3c(F)cc(S(C)(=O)=O)cc3F)nc(-c3cnc4n3CCC4)c2C2CC2)n[nH]1 [Compound 183] | 0.013 µM |
| COc1c(Nc2cc(C)[nH]n2)nc(Nc2ccc(S(C)(=O)=O)cc2F)c(C)c1-c1cnn(C)c1 [Compound 23, N^2-(2-fluoro-4-(methylsulfonyl)phenyl)-5-methoxy-3-methyl-N^6-(5-methyl-1H-pyrazol-3-yl)-4-(1-methyl-1H-pyrazol-4-yl)pyridine-2,6-diamine] | 0.21 µM |
| COc1c(Nc2cc(C)[nH]n2)nc(N(C)c2ccc(CS(C)(=O)=O)cc2)nc1-c1cnn(C)c1 [Compound 47] | 2.3 µM |
| COc1c(Nc2cc(C)[nH]n2)nc(N(C)c2ccc(CN(C(C)=O)c3ccccc3)cc2F)nc1-c1cnn(C)c1 [Compound 50] | 0.77 µM |
| Cc1cc(Nc2nc(N(C)c3c(F)cc(S(C)(=O)=O)cc3F)nc(-c3cn(C(F)F)nc3C)c2C2CC2)n[nH]1 [Compound 143] | 0.012 µM |
| COc1c(Nc2cc(C)[nH]n2)nc(N(C)c2cc3c(cc2F)OCO3)nc1-c1cnn(C)c1 [Compound 65] | 0.82 µM |
| Cc1cc(Nc2nc(N(C)c3c(F)cc(S(C)(=O)=O)cc3F)nc(-c3ccn(C4CC4)n3)c2C2CC2)n[nH]1 [Compound 209] | 0.005 µM |
| COc1c(Nc2cc(C)[nH]n2)nc(Nc2ccc(S(C)(=O)=O)cc2C)c(C)c1-c1cnn(C)c1 [Compound 96] | 0.67 µM |
| COc1c(-c2cnn(C)c2)cc(N(C)c2ccc(S(C)(=O)=O)cc2F)nc1Nc1cc(C)[nH]n1 [Compound 19, N^6-(2-fluoro-4-(methylsulfonyl)phenyl)-3-methoxy-N^6-methyl-N^2-(5-methyl-1H-pyrazol-3-yl)-4-(1-methyl-1H-pyrazol-4-yl)pyridine-2,6-diamine] | 0.056 µM |
| Cc1cc(Nc2nc(N(C)c3c(F)cc(S(C)(=O)=O)cc3F)nc(-c3nn(C)cc3CO)c2C2CC2)n[nH]1 [Compound 218] | 0.053 µM |
| Cc1cc(Nc2nc(N(C)c3c(F)cc(S(C)(=O)=O)cc3F)nc(-c3ncn(C)c3C#N)c2C2CC2)n[nH]1 [Compound 173] | 0.36 µM |

Further lines, results first:

| IC50 | SMILES |
| --- | --- |
| 0.016 µM | Cc1cc(Nc2nc(N(C)c3cc(F)c(S(C)(=O)=O)cc3F)nc(-c3cc4n(n3)CCOC4)c2C2CC2)n[nH]1 [Compound 243] |
| 0.007 µM | Cc1cc(Nc2nc(N(C)c3c(F)cc(S(C)(=O)=O)cc3F)nc(-c3cnn([C@H]4C[C@H](O)C4)c3)c2C2CC2)n[nH]1 [Compound 253] |
| > 5 µM | Cc1cc(Nc2nc(N(C)c3c(F)cc(CC(=O)N4CCC4)cc3F)nc(-c3cn(C)cn3)c2C2CC2)n[nH]1 [Compound 363] |
| 0.012 µM | Cc1cc(Nc2nc(N(C)c3c(F)cc(S(C)(=O)=O)cc3F)nc(N3CCC[C@@H]3C(N)=O)c2C2CC2)n[nH]1 [Compound 346] |
| 0.013 µM | COCCn1cc(-c2nc(N(C)c3cc(F)c(S(C)(=O)=O)cc3F)nc(Nc3cc(C)[nH]n3)c2C2CC2)nc1C [Compound 224] |
| 0.075 µM | CN(c1nc(Nc2cc(C#N)[nH]n2)c(C2CC2)c(-c2cnn(C)c2)n1)c1c(F)cc(S(C)(=O)=O)cc1F [Compound 295] |
| 0.19 µM | Cc1cc(Nc2nc(N(C)c3c(F)cc(C(=O)N(C)C)cc3F)nc(-c3cn(C)cn3)c2C2CC2)n[nH]1 [Compound 355] |
| 0.046 µM | Cc1cc(Nc2nc(N(C)c3c(F)cc(-c4ccc(=O)n(C)c4)cc3F)nc(-c3cn(C)cn3)c2C2CC2)n[nH]1 [Compound 348] |
| 0.004 µM | CN(c1nc(Nc2cc(C3CC3)[nH]n2)c(C2CC2)c(-c2cnn(C)c2C(N)=O)n1)c1c(F)cc(S(C)(=O)=O)cc1F [Compound 256] |
| 3.1 µM | Cc1cc(Nc2nc(N(C)c3c(F)cc(S(C)(=O)=O)cc3F)nc(-c3ncn(C)c3C(=O)N(C)C)c2C2CC2)n[nH]1 [Compound 274] |
| 0.087 µM | Cc1cc(Nc2nc(N(C)c3c(F)cc(S(C)(=O)=O)cc3F)nc(N3CC(n4ccnc4)C3)c2C2CC2)n[nH]1 [Compound 236] |
| 0.006 µM | Cc1cc(Nc2nc(N(C)c3c(F)cc(N4CCOC4=O)cc3F)nc(-c3cn(C)cn3)c2C2CC2)n[nH]1 [Compound 353] |
| 0.01 µM | COC(C)c1nc(-c2nc(N(C)c3c(F)cc(S(C)(=O)=O)cc3F)nc(Nc3cc(C)[nH]n3)c2C2CC2)cn1C (stereo not drawn) [Compound 244] |
| 0.005 µM | Cc1cc(Nc2nc(N(C)c3c(F)cc(S(C)(=O)=O)cc3F)nc(-c3cnn(CCS(C)(=O)=O)c3C)c2C2CC2)n[nH]1 [Compound 227] |
| 0.049 µM | Cc1cc(Nc2nc(N(C)c3c(F)cc(S(C)(=O)=O)cc3F)nc(-c3cn4c(n3)C(O)CC4)c2C2CC2)n[nH]1 (stereo not drawn) [Compound 234] |
| 0.014 µM | COC(C)(C)c1c(-c2nc(N(C)c3c(F)cc(S(C)(=O)=O)cc3F)nc(Nc3cc(C)[nH]n3)c2C2CC2)cnn1C [Compound 311] |
| 0.009 µM | Cc1cc(Nc2nc(N(C)c3c(F)cc(S(C)(=O)=O)cc3F)nc(-c3cnn(C)c3C(C)(C)O)c2C2CC2)n[nH]1 [Compound 294] |
| 0.046 µM | CC(=O)N1CCC(c2cc(F)c(N(C)c3nc(Nc4cc(C)[nH]n4)c(C4CC4)c(-c4cn(C)cn4)n3)c(F)c2)CC1 [Compound 349] |
